# Patent publication US20060121449A1, “Method for selection of compounds which inhibit clonal cell growth and use thereof” (priority 2002, published 2006)
# “Also recorded” adds a separate entry of the source.
# How the values were obtained:
# [1] = tested on: polyoma virus transformed BHK21/c13 cells, line S100T1; assay: Collocation inhibition test: clonal growth in sparsely and densely seeded areas of a cell density gradient of S100T1 cells in soft agar (Exp 13, 17, 19-26); conditions: for Significance: Exp 17 day 14; for Clonal growth, H high density area of cell gradient, High / Clonal growth, L low density area of cell gradient, High / Clonal growth, H high density area of cell gradient, Low / Clonal growth, L low density area of cell gradient, Low / Clonal growth, H high density area of cell gradient, Medium / Clonal growth, L low density area of cell gradient, Medium / Effect on cell cloning in soft agar: preliminary results; for Clonal growth, H high density area of cell gradient, High / Clonal growth, L low density area of cell gradient, High / Clonal growth, H high density area of cell gradient, Low / Clonal growth, L low density area of cell gradient, Low / Clonal growth, H high density area of cell gradient, Medium / Clonal growth, L low density area of cell gradient, Medium: Exp 13-18, 21-26; for Effect on cell cloning in soft agar: in words; for Resulting clonal growth of treated cultures: Experiment 26, read after 24 hours;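 on Clonal growth, H high density area of cell gradient, High: grades rise with clonal growth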;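 on Clonal growth, H high density area of cell gradient, Low: grades rise with clonal growth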;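 on Clonal growth, H high density area of cell gradient, Medium: grades rise with clonal growth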;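 on Clonal growth, L low density area of cell gradient, High: grades rise with clonal growth and minus or plus-minus means none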;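 on Clonal growth, L low density area of cell gradient, Low: grades rise with clonal growth and minus or plus-minus means none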;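 on Clonal growth, L low density area of cell gradient, Medium: grades rise with clonal growth and minus or plus-minus means none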;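 on all read-outs here: soft agar cultures in 24-well plates with a cell density gradient in the top layer, compounds applied from DMSO stocks, clonal growth scored in sparse versus dense areas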
# Protocol: The cells should be grown in a top agar layer to avoid growth on the bottom surface. […] Both densely seeded and sparsely seeded areas were photographed.
# Cells: The polyoma virus transformed offspring of BHK21/c13, S100T1, was grown on 75 cm^2 flasks on Eagles medium with 5% foetal calf serum. […] Foetal calf serum (0.7 ml) was added to each harvest. After low speed centrifugation the supernatant was discarded and the cells were dispersed in 1 ml FBS.
# The concentration of ultra low gelling temperature agarose (Sigma) of the top agar layer with cells was also 0.8%. […] The addition of cells was performed at the same side of the wells in order to create similar cell density gradients. Finally the top layer agar was consolidated in the refrigerator.
# After that it was incubated at 37 degrees in 5% CO2 atmosphere.
# Agar cultures were prepared in Falcon 24 well tissue culture plate. Each well contained two agar layers of 0.3 ml.
# Agar cultures were prepared in wells of Falcon 24 well tissue culture plate. Each contained two agar layers of 0.3 ml. […] The medium contained Eagles MEM and 10% foetal bovine serum (FBS).
# The compounds were first solved in DMSO in 20 mM concentration and then diluted in medium. The top layer needed 60-90 minutes in the refrigerator for solidification before incubation in 37° C. with 5% CO2 atmosphere.
# In this experiment the inhibitor was added to the bottom layer in order to get an easier way for making the cell density gradient. One side of the Falcon 24 well plate was elevated 12 degrees in the refrigerator for 60-90 minutes to solidify the bottom layer in an oblique position When then solidifying the cell containing top soft agar layer in horizontal position, the cell gradient constantly became good across the well. […] Another 90 minutes were spent in the refrigerator to consolidate the soft agar layer with cells in a horizontal position. Both layers contained 0.8% agarose, Eagles MEM and 10% FBS.
# Tilting the plate 12 degrees when solidifying the bottom layer with the drug and casting the top layer with cells horizontally made a stable cell gradient.
# The indicated compounds were added to soft agar cultures of the polyoma virus transformed cell line S100T1 of BHK21/c13 cells (Table 1). Agar cultures were prepared in wells of a Falcon 24 well tissue culture plate. The wells contained two agar layers of 0.3 ml. […] The bottom medium was identical, but without cells.
# The compounds were first solved in DMSO in 20 mM concentration and then diluted in bottom medium. The agar layers needed 60-90 minutes in the refrigerator for consolidation before incubation at 37° C. in 5% CO2 atmosphere.
# [2] = tested on: polyoma virus transformed BHK21/c13 cells, clone S100T1; assay: Clonal test: clonal growth of S100T1 cells in soft agar (Exp 2, 4, 6, 15, 16); format: cell-based, hamster
# Protocol: The clonal test comprises: • 1. seeding cells in soft agar optionally containing growth factor(s); • 2. handling or incubation of special gels (e.g. ultra low gelling temperature agarose), including the production of cell density gradients. • 3. incubating in suitable temperature and atmosphere and; • 4. regular monitoring of the cells and development of clones.
# The clonal test can be directed in fluid medium or in soft agar medium. Usually only transformed cells will form clones in soft agar.
# After seeding and mixing, the tubes were placed in the refrigerator for about 1 hour to consolidate the ultra low melting point agarose.
# 120000 S100T1 cells of a polyoma virus transformed BHK21/c13 cell line, were seeded in 1 ml soft agar medium in Falcon 50 ml centrifuge tubes. […] On the top of the agar layer 0.5 ml fluid medium was added.
# Agar cultures were prepared in wells of 24 well Falcon tissue culture plate. […] Insulin (Actrapid, Novo) was added in a concentration of 0.1 i.u./ml to BHK21/c13 cell cultures only.
# The cells were all single cells. Each well received 32000 cells (Table 4). Plate: 24 wells Falcon tissue culture plate received a bottom layer composed as in Table 3:
# The cells were all single cells.
# The wells contained two layers, each of 0.3 ml agar.
# The agarose was added to double distilled water and solved by heating in micro oven.
# [3] = Exp 15, 32000 S100T1 cells/well
compound,measurement,setting,value
C[S+](C)[O-] [DMSO],Effect on formation of clones at 4.7%,[1]; Exp 17,"inhibited formation of clones, but not completely"
same,Effect on formation of clones at 29.2 μl/700 μl or 4%,[1]; Exp 17,"inhibited formation of clones, but not completely"
same,"Clonal growth, results read on the day 14","[1]; Exp 17, a: close to densely seeded cell areas, Low: Colchicine 0.1, Podophyllotoxin 0.3, Etoposide 20, 4-OH—OPB 0.67 μM in wells, DMSO 1.16 μl",++
same,"Clonal growth, results read on the day 14","[1]; Exp 17, a: close to densely seeded cell areas, Medium: Colchicine 0.3, Podophyllotoxin 0.9, Etoposide 60, 4-OH—OPB 2 μM in wells, DMSO 6.8 μl",++
same,"Clonal growth, results read on the day 14","[1]; Exp 17, b: sparsely seeded areas in the same agar culture, Low: Colchicine 0.1, Podophyllotoxin 0.3, Etoposide 20, 4-OH—OPB 0.67 μM in wells, DMSO 1.16 μl",++
same,Concentration up to which growth was approximately unaffected,"[1]; Exp 17, soft agar cultures of S100T1",up to 1%
same,Growth inhibition at concentrations administered along with the test substances,[1]; Exp 19,did not show growth inhibition
same,Significance,"[1]; a: close to densely seeded cell areas, High: Colchicine 1, Podophyllotoxin 3, Etoposide 200, 4-OH—OPB 6.7 μM in wells, DMSO 29.2 μl",Probably
same,Significance,"[1]; a: close to densely seeded cell areas, Low: Colchicine 0.1, Podophyllotoxin 0.3, Etoposide 20, 4-OH—OPB 0.67 μM in wells, DMSO 1.16 μl",No
same,Significance,"[1]; a: close to densely seeded cell areas, Medium: Colchicine 0.3, Podophyllotoxin 0.9, Etoposide 60, 4-OH—OPB 2 μM in wells, DMSO 6.8 μl",No
same,Significance,"[1]; b: sparsely seeded areas, High: Colchicine 1, Podophyllotoxin 3, Etoposide 200, 4-OH—OPB 6.7 μM in wells, DMSO 29.2 μl",Yes
same,Significance,"[1]; b: sparsely seeded areas, Low: Colchicine 0.1, Podophyllotoxin 0.3, Etoposide 20, 4-OH—OPB 0.67 μM in wells, DMSO 1.16 μl",No
same,Significance,"[1]; b: sparsely seeded areas, Medium: Colchicine 0.3, Podophyllotoxin 0.9, Etoposide 60, 4-OH—OPB 2 μM in wells, DMSO 6.8 μl",No
O=C1NC(=O)C(c2ccccc2)(c2ccccc2)N1 [Diphenhydantoin],Effect on clonal growth at 10-100 μM,[2]; [3],did not inhibit clonal growth significantly
"O=c1[nH]cc(F)c(=O)[nH]1 [Fluorouracil, reference compound]",Effect on clonal growth and toxicity,"[1]; Exp 21, 117000 S100T1 cells/well",relatively moderate inhibition of clonal growth and low toxicity independent of dosage
same,Clonal growth,"[1]; Exp 21, 117000 cells per well, Low concentration (see figure), H: area with high cell density",++
same,Clonal growth,"[1]; Exp 21, High concentration, H: area with high cell density",++
same,Clonal growth,"[1]; Exp 21, High concentration, L: area with low cell density",+
same,Clonal growth,"[1]; Exp 21, Low concentration, L: area with low cell density",+
same,Clonal growth,"[1]; Exp 21, Medium concentration, H: area with high cell density",++
same,Clonal growth,"[1]; Exp 21, Medium concentration, L: area with low cell density",+
same,"Clonal growth, H high density area of cell gradient, High",[1]; high concentration,++
same,"Clonal growth, L low density area of cell gradient, High",[1]; high concentration,+
same,"Clonal growth, H high density area of cell gradient, Low",[1]; low concentration,++
same,"Clonal growth, L low density area of cell gradient, Low",[1]; low concentration,+
same,"Clonal growth, H high density area of cell gradient, Medium",[1]; medium concentration,++
same,"Clonal growth, L low density area of cell gradient, Medium",[1]; medium concentration,+
same,Effect on cell cloning in soft agar,[1],Rel. moderate inhibition of clonal growth
CC(C)Cc1ccc(C(C)C(=O)O)cc1 (stereo not shown) [Ibuprofen],Effect on clonal growth at 100 μM,[2]; [3],insignificant inhibition
same,Significance of results,"[2]; Exp 16, read after 14 days, Ibuprofen No 8, ca. 223 μM",possible
same,Significance,"[2]; Exp 16 day 14, Ibuprofen No 8, 215 μM",possible
same,Growth,"[2]; Exp 16 day 14, Ibuprofen No 8, 215 μM in wells",(+)
same,Growth,"[2]; Exp 16 day 14, Ibuprofen No 8, 464 μM in wells",(+))
same,Significance,"[2]; Exp 16 day 14, Ibuprofen No 8, 464 μM, doubtful because the solvent DMSO might be inhibiting",doubtful*
same,Significance,"[2]; Exp 16 day 21, Ibuprofen No 8, 215 μM",probable
same,Growth,"[2]; Exp 16 day 21, Ibuprofen No 8, 215 μM in wells",(+))
same,Growth,"[2]; Exp 16 day 21, Ibuprofen No 8, 464 μM in wells",(+))
same,Significance,"[2]; Exp 16 day 21, Ibuprofen No 8, 464 μM, *see conclusion (DMSO)",doubtful*
same,"Anti-clonal effect, summary of Exp 15",[2]; S100T1 in soft agar,showed possible clonal inhibition at low
same,"Anti-clonal effect, summary of Exp 16",[2]; S100T1 in soft agar,Ibuprofen and Naproxen possibly inhibited and Acetyl
COc1c(C)c2c(c(O)c1C/C=C(\C)CCC(=O)O)C(=O)OC2 [Mycophenolic ac],Clonal growth after 48 hours incubation,"[1]; Exp 19, high concentration, H: high cell density part of the gradient",(+)
same,Clonal growth after 48 hours incubation,"[1]; Exp 19, high concentration, L: low cell density part of the gradient",(+)
same,Clonal growth after 48 hours incubation,"[1]; Exp 19, low concentration (exact conc. only in figure), H: high cell density part of the gradient",(+)
same,Clonal growth after 48 hours incubation,"[1]; Exp 19, low concentration, L: low cell density part of the gradient",(+)
same,Clonal growth after 48 hours incubation,"[1]; Exp 19, medium concentration, H: high cell density part of the gradient",(+)
same,Clonal growth after 48 hours incubation,"[1]; Exp 19, medium concentration, L: low cell density part of the gradient",(+)
"COc1c(C)c2c(c(O)c1C/C=C(\C)CCC(=O)O)C(=O)OC2 [Mycophenolic acid, reference compound]","Clonal growth, H high density area of cell gradient, High",[1]; high concentration,(+)
same,"Clonal growth, L low density area of cell gradient, High",[1]; high concentration,(+)
same,"Clonal growth, H high density area of cell gradient, Low",[1]; low concentration,(+)
same,"Clonal growth, L low density area of cell gradient, Low",[1]; low concentration,(+)
same,"Clonal growth, H high density area of cell gradient, Medium",[1]; medium concentration,(+)
same,"Clonal growth, L low density area of cell gradient, Medium",[1]; medium concentration,(+)
same,Effect on cell cloning in soft agar,[1],Less growth in both high and low
"CC1=C(CC(=O)O)c2cc(F)ccc2/C1=C\c1ccc([S+](C)[O-])cc1 (stereo not shown) [Sulindac, reference compound]","Effect on clonal growth of sparsely seeded cells, low dose",[1]; Exp 26,clone-inducing effect
same,"Effect on clonal growth, high dose","[1]; Exp 26, 172800 S100T1 cells/well",weak anti-cloning effect on sparsely seeded cells; also recorded: abrogated this effect. It is considered logic
same,Resulting clonal growth of treated cultures,"[1]; H: area with high cell density, High concentration",++
same,Resulting clonal growth of treated cultures,"[1]; H: area with high cell density, Low concentration",++(+)
same,Resulting clonal growth of treated cultures,"[1]; H: area with high cell density, Medium concentration",++
same,Resulting clonal growth of treated cultures,"[1]; L: area with low cell density, High concentration",+
same,Resulting clonal growth of treated cultures,"[1]; L: area with low cell density, Low concentration",+++
same,Resulting clonal growth of treated cultures,"[1]; L: area with low cell density, Medium concentration",++
same,"Clonal growth, H high density area of cell gradient, High",[1]; high concentration,++
same,"Clonal growth, L low density area of cell gradient, High",[1]; high concentration,+
same,"Clonal growth, H high density area of cell gradient, Low",[1]; low concentration,++(+)
same,"Clonal growth, L low density area of cell gradient, Low",[1]; low concentration,+++
same,"Clonal growth, H high density area of cell gradient, Medium",[1]; medium concentration,++
same,"Clonal growth, L low density area of cell gradient, Medium",[1]; medium concentration,++
same,Effect on cell cloning in soft agar,[1],Possible clonal stimulation at low
"CN(Cc1cnc2nc(N)nc(N)c2n1)c1ccc(C(=O)N[C@@H](CCC(=O)O)C(=O)O)cc1 [methotrexate, Methotrexate, reference compound]",Effect on growth,"[1]; Exp 23, 180000 S100T1 cells/well",did not show significant growth inhibition at all
same,Clonal growth,"[1]; Experiment 23, A (area with high cell density), High concentration, 48 hours",+(+)
same,Clonal growth,"[1]; Experiment 23, A (area with high cell density), Low concentration, 48 hours",++
same,Clonal growth,"[1]; Experiment 23, A (area with high cell density), Medium concentration, 48 hours",++
same,Clonal growth,"[1]; Experiment 23, B (area with low cell density), High concentration, 48 hours",+
same,Clonal growth,"[1]; Experiment 23, B (area with low cell density), Low concentration, 48 hours",+
same,Clonal growth,"[1]; Experiment 23, B (area with low cell density), Medium concentration, 48 hours",+(+)
Somatotropin: growth hormone tested for clonal stimulation,Effect on clonal growth,"[1]; Exp 25, 48 hours incubation",seemed to create some large colonies
same,Clonal growth,"[1]; Experiment 25, H: area with high cell density, High concentration, after 48 hours incubation",++
same,Clonal growth,"[1]; Experiment 25, H: area with high cell density, Low concentration, after 48 hours incubation",++(+)
same,Clonal growth,"[1]; Experiment 25, H: area with high cell density, Medium concentration, after 48 hours incubation",++(+)
same,Clonal growth,"[1]; Experiment 25, L: area with low cell density, High concentration, after 48 hours incubation",++
same,Clonal growth,"[1]; Experiment 25, L: area with low cell density, Low concentration, after 48 hours incubation",++(+)
same,Clonal growth,"[1]; Experiment 25, L: area with low cell density, Medium concentration, after 48 hours incubation",++(+)
same,"Clonal growth, H high density area of cell gradient, High",[1]; high concentration,++
same,"Clonal growth, L low density area of cell gradient, High",[1]; high concentration,++
same,"Clonal growth, H high density area of cell gradient, Low",[1]; low concentration,++(+)
same,"Clonal growth, L low density area of cell gradient, Low",[1]; low concentration,++(+)
same,"Clonal growth, H high density area of cell gradient, Medium",[1]; medium concentration,++(+)
same,"Clonal growth, L low density area of cell gradient, Medium",[1]; medium concentration,++(+)
